Active and inactive are the calls of the source. The calls are words filed in the database; no cut-off is given here.

Format in all cases: cell-based
Data set [1] addresses T1, Oxysterols receptor LXR-alpha (Homo sapiens) (UniProt Q13133).
T1 sequence (whole entry): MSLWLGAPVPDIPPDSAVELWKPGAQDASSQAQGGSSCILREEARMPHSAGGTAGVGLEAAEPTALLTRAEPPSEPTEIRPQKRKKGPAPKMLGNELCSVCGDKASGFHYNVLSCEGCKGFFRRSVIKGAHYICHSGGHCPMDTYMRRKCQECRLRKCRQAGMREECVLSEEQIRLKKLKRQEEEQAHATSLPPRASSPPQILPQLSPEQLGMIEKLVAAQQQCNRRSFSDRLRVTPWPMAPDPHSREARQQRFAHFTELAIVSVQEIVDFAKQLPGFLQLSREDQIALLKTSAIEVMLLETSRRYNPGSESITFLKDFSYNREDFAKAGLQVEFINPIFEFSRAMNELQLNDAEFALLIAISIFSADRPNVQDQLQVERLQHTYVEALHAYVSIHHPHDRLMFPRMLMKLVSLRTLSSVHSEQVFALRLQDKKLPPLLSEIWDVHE
Description: Induction of LXRalpha enhancer activity in human THP1 cells after 24 hrs by luciferase reporter gene analysis. The note with it: THP-1. A general note: Reporter assays use an easily measured gene product as a stand-in for the process of interest.

The target of data set [2] is T1, Oxysterols receptor LXR-alpha (Homo sapiens). Description: Induction of LXRalpha-mediated ABCA1 promoter activity in human THP1 cells after 24 hrs by luciferase reporter gene analysis. As to conditions: THP-1.
Data set [3] shares this target. Description: Increase in LXRalpha-mediated ABCA1 mRNA expression in human THP1 cells at 5 to 15 uM after 24 hrs by RT-PCR analysis. As to conditions: THP-1.
The target is the same in data set [4]. As to the kind of experiment: Increase in LXRalpha-mediated ABCA1 protein expression in human THP1 cells at 5 to 15 uM after 48 hrs by Western blotting analysis. The note with it: THP-1. On the technique in general: Immunoblotting shows a protein as a band on a membrane.
The target of data set [5] is T2, Peroxisome proliferator-activated receptor gamma (Homo sapiens) (UniProt P37231).
T2 sequence (whole entry): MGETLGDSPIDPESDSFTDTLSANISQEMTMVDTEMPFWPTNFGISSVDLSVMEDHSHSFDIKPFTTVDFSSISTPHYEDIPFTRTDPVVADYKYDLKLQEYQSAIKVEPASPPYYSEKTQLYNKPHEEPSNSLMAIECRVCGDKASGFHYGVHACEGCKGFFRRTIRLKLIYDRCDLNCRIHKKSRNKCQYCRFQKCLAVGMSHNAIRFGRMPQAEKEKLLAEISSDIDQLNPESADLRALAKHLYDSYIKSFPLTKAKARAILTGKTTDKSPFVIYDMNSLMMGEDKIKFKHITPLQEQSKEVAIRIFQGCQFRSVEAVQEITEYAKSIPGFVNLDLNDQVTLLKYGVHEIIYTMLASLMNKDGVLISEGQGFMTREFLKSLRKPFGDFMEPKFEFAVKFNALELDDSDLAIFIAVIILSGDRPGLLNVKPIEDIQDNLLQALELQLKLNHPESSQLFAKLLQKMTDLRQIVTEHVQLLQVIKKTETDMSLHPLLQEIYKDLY
Description: Induction of PPARgamma enhancer activity in human THP1 cells after 24 hrs by luciferase reporter gene analysis. As to conditions: THP-1.

In data set [6] the target is T2, Peroxisome proliferator-activated receptor gamma (Homo sapiens). Description: Induction of PPARgamma-mediated ABCA1 promoter activity in human THP1 cells after 24 hrs by luciferase reporter gene analysis. As to conditions: THP-1.
Another data set concerns THP-1. Description: Cytotoxicity against human THP1 cells up to 100 uM after 24 hrs by WST8 assay. As to conditions: thp-1, 24 h. Background: Tetrazolium dyes change colour on reduction, which living cells bring about.

With `COc1ccc([C@@H]2CC(=O)c3c(O)cc(O)cc3O2)cc1O` [HESPERETIN], the figures for the Activity result (in data set [1]; in data set [5]; in the data set with THP-1) were “Dose-dependent effect”, “Dose-dependent effect” and “Non-toxic”, respectively. For the same compound, the outcome in data set [2], in data set [3], in data set [4] and in data set [6] was Active.

(Values after ChEMBL document CHEMBL2034959, “Hesperetin upregulates ABCA1 expression and promotes cholesterol efflux from THP-1 macrophages” (J Nat Prod, 2012).)
